According to patent US20260130370A1, “PLANT ACTIVATOR” (IBIDEN CO., LTD., priority 2021, published 2026):

Tested on: potherb mustard (“Mizuna”, Brassica rapa var. laciniifolia)
Test: Evaluation of the Mizuna (potherb mustard) growth
Assay type: in vivo
Conditions: 0.05 mg/L foliar spraying (300 L/10a) 9 and 12 days after sowing, harvested 21 days after sowing
Method: Dilutions were prepared by adding distilled water to the above-obtained trihydroxyoctadecaenoic acid solution, ketol fatty acid solution, and culture broth containing fatty acid metabolites, so that the final concentration of each of trihydroxyoctadecaenoic acid, ketol fatty acids, and fatty acid metabolites was 0.05 mg/L, and the resulting dilutions gave treatment solutions. A 72-well cell tray was filled with culture soil (TAKII & CO., LTD, trade name “Tanemaki Baido”), and the forced sprouting seeds of potherb mustard were sown in. After budding, the potherb mustard seedlings were thinned out for two plants per cell. Light condition was set for 12 hours for light period/12 hours for dark period. Water was supplied by irrigating with an appropriate amount of tap water about once every four days. 9 and 12 days after sowing, the plants were treated with foliar spraying by spraying each of the treatment solutions (300 L/10a) to the above-ground part of plants using a sprayer. The negative control was not subjected for the spraying of the treatment solution (“no treatment area”).
21 days after sowing, the plants were harvested and the wet weight of the above-ground part of plants per plant and the leaf length were measured.

CC/C=C\C/C=C\CC(=O)C(O)CCCCCCCC(=O)O (centres unmarked) [ketol fatty acid, 9-hydroxy-10-oxo-12 (Z), 15 (Z)-octadecadienoic acid]
wet weight of the above-ground part (average n=20, no treatment area 0.19 g/plant): little increase | leaf length (average n=20, no treatment area 8.1 cm): reduced
